Measured values published in ChEMBL document CHEMBL1629456, “ApoA-I mimetic peptides promote pre-β HDL formation in vivo causing remodeling of HDL and triglyceride accumulation at higher dose” (Bioorg Med Chem, 2010).

molecular target: Phospholipid-transporting ATPase ABCA1 (Mus musculus, UniProt P41233); assay: Induction of ABCA1-mediated [3H]cholesterol efflux in mouse RAW 264.7 macrophages after 24 hrs
Sequence (P41233 whole entry): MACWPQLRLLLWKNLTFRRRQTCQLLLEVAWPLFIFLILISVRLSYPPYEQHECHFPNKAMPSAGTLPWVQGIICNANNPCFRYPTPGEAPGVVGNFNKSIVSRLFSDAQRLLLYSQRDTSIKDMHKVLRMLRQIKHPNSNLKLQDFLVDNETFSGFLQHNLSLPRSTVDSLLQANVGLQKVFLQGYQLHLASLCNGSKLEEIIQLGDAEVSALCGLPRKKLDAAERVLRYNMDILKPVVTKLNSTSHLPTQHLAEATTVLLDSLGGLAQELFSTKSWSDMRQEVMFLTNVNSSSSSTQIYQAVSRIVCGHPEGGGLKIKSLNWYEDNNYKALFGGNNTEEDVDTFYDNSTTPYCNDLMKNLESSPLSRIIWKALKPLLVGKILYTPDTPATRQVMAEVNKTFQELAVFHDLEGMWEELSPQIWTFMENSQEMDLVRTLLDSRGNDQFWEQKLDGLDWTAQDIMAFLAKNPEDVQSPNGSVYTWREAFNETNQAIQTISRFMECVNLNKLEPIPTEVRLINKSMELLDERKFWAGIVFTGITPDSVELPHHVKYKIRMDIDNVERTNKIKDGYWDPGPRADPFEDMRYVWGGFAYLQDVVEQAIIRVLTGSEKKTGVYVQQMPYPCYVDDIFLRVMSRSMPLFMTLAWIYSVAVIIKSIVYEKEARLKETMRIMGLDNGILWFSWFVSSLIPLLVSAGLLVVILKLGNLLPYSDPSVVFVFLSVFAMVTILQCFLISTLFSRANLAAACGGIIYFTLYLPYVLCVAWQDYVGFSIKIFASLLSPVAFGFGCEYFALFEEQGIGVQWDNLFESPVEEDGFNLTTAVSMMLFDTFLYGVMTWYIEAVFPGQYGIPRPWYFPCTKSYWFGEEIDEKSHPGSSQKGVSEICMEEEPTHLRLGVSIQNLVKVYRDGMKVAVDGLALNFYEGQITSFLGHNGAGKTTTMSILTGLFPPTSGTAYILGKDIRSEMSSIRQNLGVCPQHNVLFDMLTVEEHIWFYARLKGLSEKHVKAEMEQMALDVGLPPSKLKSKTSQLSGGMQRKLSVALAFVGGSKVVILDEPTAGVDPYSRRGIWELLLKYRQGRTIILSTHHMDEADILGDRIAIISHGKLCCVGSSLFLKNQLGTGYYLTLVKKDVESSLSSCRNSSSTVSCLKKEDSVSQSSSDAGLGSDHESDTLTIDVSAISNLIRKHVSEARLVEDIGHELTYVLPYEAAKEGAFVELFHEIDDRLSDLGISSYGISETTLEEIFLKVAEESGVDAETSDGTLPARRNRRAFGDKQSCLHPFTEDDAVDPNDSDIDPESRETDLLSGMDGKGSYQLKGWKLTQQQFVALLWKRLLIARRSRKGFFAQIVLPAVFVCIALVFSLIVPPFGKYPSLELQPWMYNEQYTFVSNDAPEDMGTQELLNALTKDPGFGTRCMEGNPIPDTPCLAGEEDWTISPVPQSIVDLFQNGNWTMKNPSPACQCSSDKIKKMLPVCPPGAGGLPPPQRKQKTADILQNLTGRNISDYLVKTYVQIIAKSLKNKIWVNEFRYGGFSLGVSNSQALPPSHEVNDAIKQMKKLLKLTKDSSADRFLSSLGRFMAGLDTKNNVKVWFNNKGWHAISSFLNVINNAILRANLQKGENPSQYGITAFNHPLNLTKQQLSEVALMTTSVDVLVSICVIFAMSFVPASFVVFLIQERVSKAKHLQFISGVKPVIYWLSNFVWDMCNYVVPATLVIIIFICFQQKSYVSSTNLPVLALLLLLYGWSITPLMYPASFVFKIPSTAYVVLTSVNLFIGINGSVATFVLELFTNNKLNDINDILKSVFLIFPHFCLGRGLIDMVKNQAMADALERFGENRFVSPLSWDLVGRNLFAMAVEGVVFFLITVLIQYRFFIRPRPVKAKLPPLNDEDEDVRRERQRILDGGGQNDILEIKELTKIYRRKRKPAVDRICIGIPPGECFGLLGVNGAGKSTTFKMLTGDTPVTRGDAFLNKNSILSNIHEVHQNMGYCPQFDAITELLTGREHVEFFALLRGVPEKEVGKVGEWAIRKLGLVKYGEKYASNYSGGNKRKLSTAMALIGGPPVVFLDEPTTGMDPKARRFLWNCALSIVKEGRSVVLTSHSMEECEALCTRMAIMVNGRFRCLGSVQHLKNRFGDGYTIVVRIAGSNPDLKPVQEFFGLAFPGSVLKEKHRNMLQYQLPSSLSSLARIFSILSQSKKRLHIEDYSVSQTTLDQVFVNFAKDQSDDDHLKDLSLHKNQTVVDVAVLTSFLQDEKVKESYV

EC50, > 100 µM:
C=CCCCC[C@@H](NC(=O)[C@H](CCC(=O)O)NC(=O)[C@H](CCC(=O)O)NC(=O)[C@H](CC(N)=O)NC(=O)[C@H](CC(C)C)NC(=O)[C@H](CCCCN)NC(=O)[C@H](CCC(=O)O)NC(=O)[C@H](CCCN=C(N)N)NC(=O)[C@H](Cc1ccccc1)NC(=O)[C@H](CCC(=O)O)NC(=O)[C@H](CC(=O)O)NC(=O)[C@H](CC(C)C)NC(=O)[C@@H](NC(=O)[C@@H]1CCCN1C(C)=O)C(C)C)C(=O)N[C@@H](CCC(=O)O)C(=O)N[C@@H](C)C(=O)N[C@@H](CC(C)C)C(=O)N[C@@H](CCCCN)C(=O)N[C@@H](CCC(N)=O)C(=O)N[C@@H](CCCCN)C(=O)N[C@@H](CC(C)C)C(=O)N[C@@H](CCCCN)C(N)=O
C=CCCCC[C@@H](NC(=O)[C@H](C)NC(=O)[C@H](CCC(=O)O)NC(=O)[C@H](CC(C)C)NC(=O)[C@H](CCC(=O)O)NC(=O)[C@H](CCC(=O)O)NC(=O)[C@H](CC(N)=O)NC(=O)[C@H](CC(C)C)NC(=O)[C@H](CCCCN)NC(=O)[C@H](CCC(=O)O)NC(=O)[C@H](CCCNC(=N)N)NC(=O)[C@H](Cc1ccccc1)NC(=O)[C@H](CCC(=O)O)NC(=O)[C@H](CC(=O)O)NC(=O)[C@H](CC(C)C)NC(=O)[C@@H](NC(=O)[C@@H]1CCCN1C(C)=O)C(C)C)C(=O)N[C@@H](CCCCN)C(=O)N[C@@H](CCC(N)=O)C(=O)N[C@@H](CCCCN)C(=O)N[C@@H](CC(C)C)C(=O)N[C@@H](CCCCN)C(N)=O
C=CCCCC[C@@H](NC(=O)[C@H](CCC(N)=O)NC(=O)[C@H](CCCCN)NC(=O)[C@H](CC(C)C)NC(=O)[C@H](C)NC(=O)[C@H](CCC(=O)O)NC(=O)[C@H](CC(C)C)NC(=O)[C@H](CCC(=O)O)NC(=O)[C@H](CCC(=O)O)NC(=O)[C@H](CC(N)=O)NC(=O)[C@H](CC(C)C)NC(=O)[C@H](CCCCN)NC(=O)[C@H](CCC(=O)O)NC(=O)[C@H](CCCNC(=N)N)NC(=O)[C@H](Cc1ccccc1)NC(=O)[C@H](CCC(=O)O)NC(=O)[C@H](CC(=O)O)NC(=O)[C@H](CC(C)C)NC(=O)[C@@H](NC(=O)[C@@H]1CCCN1C(C)=O)C(C)C)C(=O)N[C@@H](CC(C)C)C(=O)N[C@@H](CCCCN)C(N)=O
C=CCCCC[C@@H](NC(=O)[C@H](CCCCN)NC(=O)[C@H](CCC(N)=O)NC(=O)[C@H](CCCCN)NC(=O)[C@H](CC(C)C)NC(=O)[C@H](C)NC(=O)[C@H](CCC(=O)O)NC(=O)[C@H](CC(C)C)NC(=O)[C@H](CCC(=O)O)NC(=O)[C@H](CCC(=O)O)NC(=O)[C@H](CC(N)=O)NC(=O)[C@H](CC(C)C)NC(=O)[C@H](CCCCN)NC(=O)[C@H](CCC(=O)O)NC(=O)[C@H](CCCNC(=N)N)NC(=O)[C@H](Cc1ccccc1)NC(=O)[C@H](CCC(=O)O)NC(=O)[C@H](CC(=O)O)NC(=O)[C@H](CC(C)C)NC(=O)[C@@H](NC(=O)[C@@H]1CCCN1C(C)=O)C(C)C)C(=O)N[C@@H](CCCCN)C(N)=O
C=CCCC[C@@H](NC(=O)[C@H](CCC(=O)O)NC(=O)[C@H](CC(=O)O)NC(=O)[C@H](CC(C)C)NC(=O)[C@@H](NC(=O)[C@@H]1CCCN1C(C)=O)C(C)C)C(=O)N[C@@H](CCCNC(=N)N)C(=O)N[C@@H](CCC(=O)O)C(=O)N[C@@H](CCCCN)C(=O)N[C@@H](CC(C)C)C(=O)N[C@@H](CC(N)=O)C(=O)N[C@@H](CCC(=O)O)C(=O)N[C@@H](CCC(=O)O)C(=O)N[C@@H](CC(C)C)C(=O)N[C@@H](CCC(=O)O)C(=O)N[C@@H](C)C(=O)N[C@@H](CC(C)C)C(=O)N[C@@H](CCCCN)C(=O)N[C@@H](CCC(N)=O)C(=O)N[C@@H](CCCCN)C(=O)N[C@@H](CC(C)C)C(=O)N[C@@H](CCCCN)C(N)=O
